This is an account of results in patent US8987467B2, “Substituted pyrazole azetidines as sphingosine receptor modulators” (Allergan, Inc., priority 2013, dated 2015).

The target of the experiment is T1, human S1P1 receptor (Homo sapiens, UniProt P21453).
T1 construct: expressed in transfected cells; membranes used
In words: GTP γ35S binding assay for S1P1 activity. Type of experiment: biochemical. The settings on record: membranes of cells stably expressing the S1P1 receptor; test concentrations 0.08 to 5,000 nM; 30 min at 25° C.; read-out: S1P1 EC50 (Activity potency: S1P1 receptor from GTP γ35S). The method, then: Compounds were tested for S1P1 activity using the GTP γ^35S binding assay. These compounds may be assessed for their ability to activate or block activation of the human S1P1 receptor in cells stably expressing the S1P1 receptor.
GTP γ^35S binding was measured in the medium containing (mM) HEPES 25, pH 7.4, MgCl2 10, NaCl 100, dithiothreitol 0.5, digitonin 0.003%, 0.2 nM GTP γ^355, and 5 μg membrane protein in a volume of 150 μl. Test compounds were included in the concentration range from 0.08 to 5,000 nM unless indicated otherwise. Membranes were incubated with 100 μM 5′-adenylylimidodiphosphate for 30 min, and subsequently with 10 μM GDP for 10 min on ice. Drug solutions and membrane were mixed, and then reactions were initiated by adding GTP γ^355 and continued for 30 min at 25° C. Reaction mixtures were filtered over Whatman GF/B filters under vacuum, and washed three times with 3 mL of ice-cold buffer (HEPES 25, pH 7.4, MgCl2 10 and NaCl 100). Filters were dried and mixed with scintillant, and counted for ^35S activity using a β-counter. Agonist-induced GTP γ^355 binding was obtained by subtracting that in the absence of agonist. Binding data were analyzed using a non-linear regression method. In case of antagonist assay, the reaction mixture contained 10 nM S1P in the presence of test antagonist at concentrations ranging from 0.08 to 5000 nM.
In general terms: GTPγS is a poorly hydrolysed GTP analogue; its binding reports G protein activation.

T1 sequence (P21453 whole entry): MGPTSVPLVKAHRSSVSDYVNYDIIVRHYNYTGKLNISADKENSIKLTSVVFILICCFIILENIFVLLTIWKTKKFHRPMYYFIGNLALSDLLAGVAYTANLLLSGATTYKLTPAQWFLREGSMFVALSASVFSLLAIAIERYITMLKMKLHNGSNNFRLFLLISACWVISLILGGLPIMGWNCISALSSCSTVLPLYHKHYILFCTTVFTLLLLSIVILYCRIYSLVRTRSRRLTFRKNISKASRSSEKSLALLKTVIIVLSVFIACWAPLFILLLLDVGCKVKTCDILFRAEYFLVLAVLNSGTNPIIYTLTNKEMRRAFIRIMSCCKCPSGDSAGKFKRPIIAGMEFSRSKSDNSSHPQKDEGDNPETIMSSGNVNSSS

The term EC50 denotes the concentration needed to bring the measured effect to its halfway point. For `CCCN1N=C(c2nc(-c3ccc(CN4CC(C(=O)O)C4)cc3)no2)CC1c1ccccc1` (stereo not shown) [Compound 6, 1-{4-[5-(5-phenyl-1-propyl-4,5-dihydro-1H-pyrazol-3-yl)-1,2,4-oxadiazol-3-yl]benzyl}azetidine-3-carboxylic acid], the concentration for a half-maximal effect (EC50) came out at 75 nM. For `CCc1cc(-c2noc(C3=NN(CC)C(c4ccccc4)C3)n2)ccc1CN1CC(C(=O)O)C1` (stereo not shown) [Compound 5, 1-{2-ethyl-4-[5-(1-ethyl-5-phenyl-4,5-dihydro-1H-pyrazol-3-yl)-1,2,4-oxadiazol-3-yl]benzyl}azetidine-3-carboxylic acid], the EC50 was determined as 24 nM. As to `CCN1N=C(c2nc(-c3ccc(CN4CC(C(=O)O)C4)cc3)no2)CC1c1ccccc1` (stereo not shown) [Compound 1, 1-{4-[5-(1-ethyl-5-phenyl-4,5-dihydro-1H-pyrazol-3-yl)-1,2,4-oxadiazol-3-yl]benzyl}azetidine-3-carboxylic acid], the EC50 was 252 nM. The result for `CCN1N=C(c2nc(-c3cc(F)c(CN4CC(C(=O)O)C4)c(F)c3)no2)CC1c1ccccc1` (stereo not shown) [Compound 4, 1-{4-[5-(1-ethyl-5-phenyl-4,5-dihydro-1H-pyrazol-3-yl)-1,2,4-oxadiazol-3-yl]-2,6-difluorobenzyl}azetidine-3-carboxylic acid] reads 51 nM.
